According to US20100160176A1, “RAT GENE […] OF DRUG TRANSPORTERS, CYTOCHROME P450s, TRANSFERASES AND NUCLEAR […] FOR PREDICTING DRUG EFFECTS” (NOAB BIOD[…]., priority 2008, published 2010):
Like-named read-outs stand apart in the source and are kept apart here.

Columns and labels:
ABCD2 gene expression = experiment: Rat DTEx microarray gene expression profiling in drug-treated female rat primary hepatocytes (FIG. 109): ABCD2; format: in vitro ADME
Procedure: (§1) Images were analysed using QuantArray software (GSI Lumonics Inc.).

ABCC3 gene expression = experiment: Rat DTEx microarray gene expression profiling in drug-treated female rat primary hepatocytes (FIG. 109): ABCC3; format: in vitro ADME
Procedure: as §1

CYP3A1 gene expression = experiment: Rat DTEx microarray gene expression profiling in drug-treated female rat primary hepatocytes (FIG. 109): CYP3A1; conditions: female rat primary hepatocytes treated with the drug
Text: The total RNA component of the nucleic acid lysate was isolated according to the manufacturer's instructions.

[1] = female rat primary hepatocytes treated with the drug, FIG. 109

SMILES	effect on ABCD2 gene expression (normalized fluorescence intensity dendrogram plot) (ABCD2 gene expression)	effect on ABCC3 gene expression (normalized fluorescence intensity dendrogram plot) (ABCC3 gene expression)	effect on ABCD2 gene expression (normalized fluorescence intensity dendrogram plot) (ABCD2 gene expression; [1])	effect on CYP3A1 gene expression (normalized fluorescence intensity dendrogram plot) (CYP3A1 gene expression)	effect on ABCC3 gene expression (normalized fluorescence intensity dendrogram plot) (ABCC3 gene expression; [1])
C[C@@H]1C[C@H]2[C@@H]3CCC4=CC(=O)C=C[C@]4(C)[C@@]3(F)[C@@H](O)C[C@]2(C)[C@@]1(O)C(=O)CO [DEX, dexamethasone]	suppress	induces gene expression			
CC(=O)[C@H]1[C@H](C#N)C[C@H]2[C@@H]3CC=C4C[C@@H](O)CC[C@]4(C)[C@H]3CC[C@@]21C [PCN]			suppress	induce	suppresses gene expression
